Converted amounts (≈) assume the structure as drawn.
settings: buffer; pH 7.4; 200.0 µM

Compound	solubility kinetic
CC(NCc1cccnc1)c1ccccc1 (centres undefined)	> 31.8 µg/mL
COc1cc(/C=C/C(=O)N2CCc3ccccc3C2)cc(OC)c1OC	46.6 µg/mL (≈ 132 µM)
CS(=O)(=O)Nc1cc2c3c(c1)CCC(=O)N3CCC2	39.9 µg/mL (≈ 142 µM)
CC(NC(=O)c1ccc(Br)o1)c1ccccc1 (centres undefined)	35.8 µg/mL (≈ 122 µM)
O=C(NCc1ccccn1)C1CCCCC1	> 32.7 µg/mL
Cc1cccc(-c2noc(-c3ccno3)n2)c1	4.8 µg/mL (≈ 21.1 µM)
CCOC(=O)c1cnc2ccc(C)cc2c1N(C)Cc1ccccc1	3.8 µg/mL (≈ 11.4 µM)
Cl.OC(CNCc1ccc(-c2ccccc2)cc1)c1ccccc1 (centres undefined)	1.6 µg/mL
CCc1ccc(NC(=O)c2[nH]c(C)c(C(C)=O)c2C)cc1	5.1 µg/mL (≈ 17.9 µM)
Cc1ccc(S(=O)(=O)N2CCC(=O)CC2)cc1	> 38 µg/mL
O=C(O)CCSc1nc2ccccc2n1Cc1ccccc1	43.7 µg/mL (≈ 140 µM)
O=C(Nc1ccc(S(=O)(=O)Nc2ccccn2)cc1)C(F)(F)F	> 51.8 µg/mL
Cc1cc(C)c(C)c(S(=O)(=O)Nc2ccccc2N2CCOCC2)c1C	1.7 µg/mL (≈ 4.54 µM)
CC(C)(C)NC(=O)Cn1c(Cl)nc2ccccc21	> 39.9 µg/mL
CC(C)C(NS(=O)(=O)c1ccccc1)C(=O)N1CCCC1 (centres undefined)	> 46.6 µg/mL
O=C(CCCCl)Nc1nc(-c2ccc3c(c2)OCCO3)cs1	1.1 µg/mL (≈ 3.25 µM)
COc1ccc(CCNS(=O)(=O)c2ccc3c(c2)CCCC3)cc1OC	28.2 µg/mL (≈ 75.1 µM)
CN(C)S(=O)(=O)c1ccc(NC(=O)CN2CCCCCC2)cc1	50.9 µg/mL (≈ 150 µM)
COCc1nc2oc3ccc(F)cc3c(=O)c2cc1C(=O)OC	10.4 µg/mL (≈ 32.8 µM)
CC1(C)Oc2ccc3ccc(=O)oc3c2/C(=N/O)C1=O	> 41 µg/mL
O=C1CCCN1CCCNC(=S)Nc1ccccc1Cl	38.4 µg/mL (≈ 123 µM)
CCOc1ccc(OCC)c(S(=O)(=O)n2ccnc2C)c1	19.7 µg/mL (≈ 63.5 µM)
Cc1cc2cc(C#N)c(SCC(=O)Nc3nonc3C)nc2cc1C	0.3 µg/mL (≈ 0.849 µM)
C=CCN1CCN(C(=O)c2oc3ccccc3c2C)CC1	> 42.7 µg/mL
Cc1ccc(S(=O)(=O)NC(C)CCc2ccccc2)cc1C(N)=O (centres undefined)	> 52 µg/mL

Compound	solubility kinetic
Cc1ccc(NC(=O)CN2C(=O)NC(C)(CC(C)C)C2=O)cc1F (centres undefined)	> 50.3 µg/mL
Cc1ccc(NC(=O)Cn2ccc(=O)[nH]c2=O)cc1	> 38.9 µg/mL
O=C(O)c1ccccc1-c1ccccc1C(=O)Nc1cccc(Br)c1	53.6 µg/mL (≈ 135 µM)
CCOC(=O)c1nsnc1NCCCl	22.7 µg/mL (≈ 96.3 µM)
Cc1ccc(C(C)C)cc1OCC(=O)NC1CCCCCCC1	< 0.7 µg/mL
Cc1ccc2nc(-c3ccccn3)cc(C(=O)NC(C)C(C)(C)C)c2c1 (centres undefined)	3.2 µg/mL (≈ 9.21 µM)
Cc1nc2ccccc2c(=O)n1NC(=O)c1ccccc1F	> 44.6 µg/mL
O=C1CSC(c2cccnc2)N1CCc1ccccn1 (centres undefined)	> 42.8 µg/mL
COCC(C)NC(=O)c1cc(OC)cc(OC)c1 (centres undefined)	> 38 µg/mL
COc1ccc(N2C(=O)NC(=O)C2=O)cc1	> 33 µg/mL
Cc1cccc(NS(=O)(=O)c2ccc([N+](=O)[O-])cc2)n1	39.4 µg/mL (≈ 134 µM)
O=C(COC(=O)C12CC3CC(CC(Br)(C3)C1)C2)Nc1c(F)cccc1F	16.1 µg/mL (≈ 37.6 µM)
COc1ccc2c(c1)CC(C(=O)Nc1ccc(Cl)cc1)/C(=N/O)O2 (centres undefined)	< 0.4 µg/mL
C=CCNC(=S)Nc1cccc(N)c1	> 31.1 µg/mL
Cc1ccc(N2C(=O)CSC2=S)cc1C	< 0.5 µg/mL
CC(C)CCN1CCN(Cc2ccon2)CC1CCO (centres undefined)	> 42.2 µg/mL
COCc1cc(=O)[nH]c(Cc2c(Cl)cccc2Cl)n1	1.7 µg/mL (≈ 5.68 µM)
O=C(COC(=O)COc1ccc(Br)cc1)NCC1CCCO1 (centres undefined)	> 55.8 µg/mL
Cc1cccc(Nc2ccc(C(=O)O)cc2[N+](=O)[O-])c1C	> 42.9 µg/mL
O=C(CN1CCCC1)Nc1cc(F)ccc1F	35.1 µg/mL (≈ 146 µM)
CC1(C)C2CCC(C2)C1(C)NC(=O)C[N+](C)(C)C.[Cl-] (centres undefined)	43.2 µg/mL
CC1CCCCC1NC(=O)c1ccc2c(c1)OCCO2 (centres undefined)	> 41.3 µg/mL
O=C(CN1c2cccc3cccc(c23)S1(=O)=O)NC1CCCCC1	5 µg/mL (≈ 14.5 µM)
Cc1ccc(NC(=O)C(=O)NCc2ccncc2)cc1	29.6 µg/mL (≈ 110 µM)

Source: PubChem BioAssay AID1996
